# Reference: patent US10166253B2, “Positively charged co-polymers for use as antimicrobial agents” (priority 2014, dated 2019)
# Tests used:
# [1] = test system: S. aureus (Wood 46, NCTC 7121); experiment: Antimicrobial susceptibility testing by flow cytometry-based assay (LIVE/DEAD BacLight, Syto9/PI); type: cell-based, Staphylococcus aureus; conditions: 30 minutes
# Protocol: (§1) E. coli (strain NCTC 10418), P. aeruginosa (Strain PAO1) and S. aureus (Wood 46, NCTC 7121) cells were grown in 5 mL of Todd Hewitt Broth medium (THB; Sigma-Aldrich). Bacteria were cultivated at 37° C. for 15 h in a 15 mL tube to obtain late-log phase cultures. Bacterial cultures were pelleted at 3096 g for 10 minutes; the supernatant was discarded and bacteria were resuspended in phosphate-buffered saline (PBS) supplemented with 40 mg/ml human albumin to mimic chemical properties of blood. Bacteria were diluted to a standardized inoculum of 10^9 CFU/mL.
# (§2) Bacteria were treated with GA, LL-37, Piperacillin/Tazobactam or Vancomycin in varying concentrations, i.e. 50, 25, 10 or 2 μg/ml, for 30 minutes. As a positive control, bacteria were treated with 7% isopropanol. Hereafter, bacteria were pelleted at 3096 g for 10 minutes; the supernatant was discarded and bacteria were resuspended in PBS. The antimicrobial effect was tested in a well-established and widely used flow cytometry-based assay (LIVE/DEAD® BacLight™ Bacterial Viability and Counting Kit (L34856), Molecular Probes/Invitrogen) according to manufacturer's manual.
# (§3) For each bacteria, the flow cytometry-based assay was repeated four times.
# [2] = test system: E. coli (strain NCTC 10418); experiment: as above; type: cell-based, Escherichia coli
# Protocol: as §1, §2, §3
# Flow cytometry was used to determine the antimicrobial activity of GA and LL-37. The flow cytometry diagrams show the results after treatment with 50 μg/ml LL-37, GA, piperacillin/tazobactam, 7% isopropanol and the untreated control. […] This gating strategy was primarily applied to avoid counting beads in the upper right corner of the FS-SS. […] Thus, a two-color fluorescence assay of bacterial viability, including PI and Syto9 staining, was applied. Syto9 stains all bacteria in a population, i.e. those with intact and those with damaged membranes. In contrast, propidium iodide (PI) penetrates only bacteria with damaged membranes, thereby making quantification of bacterial viability possible.
# [3] = test system: P. aeruginosa (Strain PAO1); experiment: as above; type: cell-based
# Protocol: as §1, §2, §3
# The antibacterial effect of GA on the gram-negative strain P. aeruginosa was tested by carrying out an experiment as described in Example 1. […] Although the untreated control stained positive for PI, this seemed to be explained by the capability of intact P. aeruginosa to secrete large quantities of DNA to the extracellular milieu.
# P. aeruginosa (PAO1) [4] = experiment: Transmission electron microscopy of treated bacteria; type: cell-based, Pseudomonas aeruginosa
# Source text: (§4) Transmission electron microscopy (TEM) was applied to examine the ultrastructural changes in P. aeruginosa (PAO1), S. aureus (Wood 46) and E. coli (NCTC 10418) induced after treatment with GA and LL-37. […] This critical alteration in the outer membrane of E. coli has previously been described as a disintegration of the outer membrane into micelles and vesicle-like structures (Meincken, M., D. L. Holroyd, and M. Rautenbach, Atomic force microscopy study of the effect of antimicrobial peptides on the cell envelope of Escherichia coli. Antimicrob Agents Chemother, 2005. 49(10): p. 4085-92). […] After incubation with LL-37 and GA, we found burst cells, but this observation was most significant after treatment with LL-37 (FIG. 9). Scale bar, 0.5 μm. Experiments were performed as 2 replicates.
# S. aureus (Wood 46) = experiment: as above; type: cell-based, Staphylococcus aureus
# Source text: as §4
# P. aeruginosa (PAO1) [5] = experiment: Antimicrobial activity in human serum and plasma (flow cytometry, PI/Syto9); type: cell-based, Pseudomonas aeruginosa; conditions: P. aeruginosa PAO1 ~10^8 cells/ml
# Source text: It has been reported that the antimicrobial activity of antimicrobial peptides are inhibited by their binding to different factors in human plasma (Wang, Y., et al., Apolipoprotein A-I binds and inhibits the human antibacterial/cytotoxic peptide LL-37. J Biol Chem, 1998. 273(50): p. 33115-8), serum and is influenced by pH and ion composition (Johansson, J., et al., Conformation-dependent antibacterial activity of the naturally occurring human peptide LL-37. J Biol Chem, 1998. 273(6): p. 3718-24). To investigate the potential of GA for systemic application, bacterial isolates of P. aeruginosa (PAO1, ˜10^8 cells/ml) were incubated with increasing concentrations of GA and compared to LL-37. Bacterial survival and enumeration was evaluated by a flow cytometry bead standard and stained with propidium iodide and Syto9 following procedures as previously described above in the antimicrobial susceptibility testing by flow cytometry-based assay. […] All experiments were performed as four replicates.
# E. coli (NCTC 10418) = experiment: Transmission electron microscopy of treated bacteria; type: cell-based, Escherichia coli
# Source text: as §4
# [6] = positive control, 7% isopropanol
# [7] = within the 30 minutes of treatment
molecule,measurement,setting,value
CN[C@H](CC(C)C)C(=O)N[C@H]1C(=O)N[C@@H](CC(N)=O)C(=O)N[C@H]2C(=O)N[C@H]3C(=O)N[C@H](C(=O)N[C@H](C(=O)O)c4cc(O)cc(O)c4-c4cc3ccc4O)[C@H](O)c3ccc(c(Cl)c3)Oc3cc2cc(c3O[C@@H]2O[C@H](CO)[C@@H](O)[C@H](O)[C@H]2O[C@H]2C[C@](C)(N)[C@H](O)[C@H](C)O2)Oc2ccc(cc2Cl)[C@H]1O [Vancomycin],antimicrobial activity (in words),[1],comparable to the one obtained for LL-37
CC(C)O [isopropanol],percentage of bacteria testing positive for PI,[2]; [6],32.2%
same,percentage of bacteria testing positive for Syto-9,[2]; [6],61.7%
Piperacillin/Tazobactam,percentage of bacteria testing positive for PI,"[2]; 50 μg/ml, 30 minutes",10%
same,percentage of bacteria testing positive for Syto-9,"[2]; 50 μg/ml, 30 minutes",86.8%
same,antimicrobial activity (in words),[2]; [7],no antimicrobial activity
same,PI positivity,"[3]; 50 μg/ml, 30 minutes",about 30%
same,antimicrobial activity (in words),[3]; [7],no antimicrobial activity
CC[C@H](C)[C@H](NC(=O)[C@H](CCCCN)NC(=O)[C@H](CCC(=O)O)NC(=O)[C@H](CCCCN)NC(=O)[C@H](CO)NC(=O)[C@H](CCCCN)NC(=O)[C@H](CCCNC(=N)N)NC(=O)[C@H](Cc1ccccc1)NC(=O)[C@H](Cc1ccccc1)NC(=O)[C@H](CC(=O)O)NC(=O)CNC(=O)[C@H](CC(C)C)NC(=O)[C@@H](N)CC(C)C)C(=O)NCC(=O)N[C@@H](CCCCN)C(=O)N[C@@H](CCC(=O)O)C(=O)N[C@@H](Cc1ccccc1)C(=O)N[C@@H](CCCCN)C(=O)N[C@@H](CCCNC(=N)N)C(=O)N[C@H](C(=O)N[C@H](C(=O)N[C@@H](CCC(N)=O)C(=O)N[C@@H](CCCNC(=N)N)C(=O)N[C@H](C(=O)N[C@@H](CCCCN)C(=O)N[C@@H](CC(=O)O)C(=O)N[C@@H](Cc1ccccc1)C(=O)N[C@@H](CC(C)C)C(=O)N[C@@H](CCCNC(=N)N)C(=O)N[C@@H](CC(N)=O)C(=O)N[C@@H](CC(C)C)C(=O)N[C@H](C(=O)N1CCC[C@H]1C(=O)N[C@@H](CCCNC(=N)N)C(=O)N[C@H](C(=O)N[C@@H](CCC(=O)O)C(=O)N[C@@H](CO)C(=O)O)[C@@H](C)O)C(C)C)[C@@H](C)CC)C(C)C)[C@@H](C)CC [LL-37],"ultrastructural changes (TEM, in words)",P. aeruginosa (PAO1) [4],dramatically reduced number of P. aeruginosa
same,percentage of bacteria testing positive for PI,"[2]; 50 μg/ml, 30 minutes",17.8%
same,percentage of bacteria testing positive for Syto-9,"[2]; 50 μg/ml, 30 minutes",75.1%
same,"ultrastructural changes (TEM, in words)",S. aureus (Wood 46),burst cells
same,antimicrobial activity in human plasma and serum (in words),P. aeruginosa (PAO1) [5],retains antimicrobial activity
same,antimicrobial activity (in words),[3]; [7],more potent than when treating bacteria with 7% isopropanol
same,decreased bacterial inoculum,[3]; [7],~75%
same,increased PI positivity,[3]; within the 30 minutes of treatment (FIG. 4 overview),~50%
same,"ultrastructural changes (TEM, in words)",E. coli (NCTC 10418),Signs of damage to the bacterial membrane
same,antimicrobial activity (in words),[1],more potent than Vancomycin
same,percentage of bacteria testing positive for PI,[1],31.9%
